This passage reports TGI and GI50 results from PubChem BioAssay (NCI).

Among the test systems are MDA-N; LXFL 529 NSCLC; DMS 273 small cell lung; KM20L2 colon; DLD-1 colon; XF 498 CNS; DMS 114 small cell lung; HOP-18 NSCLC; RXF-631 renal.
Common to all, as to test: NCI-60 cell line screen, 48 h

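Five concentrations, 48 hours, 96-well plates. Here, GI50 denotes the concentration required for 50% inhibition of growth. The concentration for full growth arrest is given as TGI.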

For the compound `CCOC(=O)C(/C=N\C(=S)Nc1ccc(OCC)cc1)=C(/O)c1ccccc1`, the TGI in the test with MDA-N was more than 100 µM.
As to `Cc1cc2c(=O)c3ccccc3[nH]c2c(C(=O)O)c1C`, the TGI with LXFL 529 NSCLC, in the test with DMS 273 small cell lung, with KM20L2 colon, in the test on DLD-1 colon, in the test on XF 498 CNS and in the test with DMS 114 small cell lung was more than 100 µM each time.
As to `CN=C1SC(=Nc2ccc(N(C)C)cc2)N1C`, the TGI is more than 100 µM with LXFL 529 NSCLC; more than 100 µM in the test on DMS 273 small cell lung; more than 100 µM in the test with HOP-18 NSCLC; more than 100 µM in the test with DLD-1 colon; 60.3 µM in the test with DMS 114 small cell lung.
For `O=C(OC[C@H]1O[C@@H](OC(=O)c2cc(O)c(O)c(O)c2)[C@H](OC(=O)c2cc(O)c(O)c(O)c2)[C@@H](OC(=O)c2cc(O)c(O)c(O)c2)[C@@H]1OC(=O)c1cc(O)c(O)c(O)c1)c1cc(O)c(O)c(O)c1`, the TGI in the test on LXFL 529 NSCLC was more than 100 µM; in the test on DMS 273 small cell lung it was 7.07 µM; with KM20L2 colon, more than 100 µM; in the test with HOP-18 NSCLC, more than 100 µM; with DLD-1 colon it was 22.5 µM; with XF 498 CNS, 22.5 µM. The same compound came in with a TGI in the test on DMS 114 small cell lung of 15.9 µM.
Compound `Cc1nc(C(N)=S)sc1C(=O)C/C(=N/N)C(=O)Nc1cccc(Cl)c1C` returned a TGI in the test with MDA-N of more than 100 µM.
Consider `C1=CC=C2NCCOCCNC3=CC=CC=CC3=NCCOCCN=C2C=C1`, for which the TGI is more than 100 µM in the test with RXF-631 renal; more than 100 µM with LXFL 529 NSCLC; more than 100 µM with DMS 273 small cell lung; 79.3 µM in the test with KM20L2 colon; more than 100 µM in the test with HOP-18 NSCLC; more than 100 µM with DLD-1 colon. The same compound came in with a TGI with DMS 114 small cell lung of more than 100 µM.
As for `COc1ccc(/C=C2\C(=O)N(C(=O)Cc3ccccc3)N=C2C)cc1OC`, the TGI in the test with DMS 273 small cell lung, in the test on HOP-18 NSCLC, in the test with XF 498 CNS and with DMS 114 small cell lung was more than 100 µM in each case.
As to `CC(=O)O[C@@H]1C2C(=O)OC(=O)C2C2CCC[C@]23O[C@H]13` (some centres not stated), the TGI with LXFL 529 NSCLC, in the test on DMS 273 small cell lung, with KM20L2 colon, in the test with HOP-18 NSCLC, with DLD-1 colon and with DMS 114 small cell lung was more than 100 µM throughout.
On to `Cn1c(=O)c2c(ncn2CN2CCN(Cn3cnc4c3c(=O)n(C)c(=O)n4C)CC2)n(C)c1=O`, for which the TGI in the test with MDA-N was more than 100 µM.
In the test with MDA-N, `Fc1cccc(Cl)c1/C=N\N=C1c2ccccc2-c2ccccc21` returned a TGI of more than 100 µM.
For `Cc1c2cc[n+](C)cc2c(C)c2c1[nH]c1ccc(O)c(OCC(F)(F)F)c12`, the TGI in the test with RXF-631 renal is 15.4 µM; with LXFL 529 NSCLC, 8.16 µM; in the test on DMS 273 small cell lung, 8.79 µM; with KM20L2 colon, more than 55 µM; with DLD-1 colon, 44.4 µM; in the test with XF 498 CNS it was 10.6 µM. This compound also yielded a TGI in the test with DMS 114 small cell lung of 8.04 µM.
Take `O=[N+]([O-])c1ccc2c(c1)[O][Sn]([I])([I])[O]2`: the GI50 in the test on DMS 273 small cell lung was 71.1 µM; with KM20L2 colon, more than 100 µM; in the test on DLD-1 colon, more than 100 µM; in the test with DMS 114 small cell lung, more than 100 µM. The TGI in the test with DMS 273 small cell lung, in the test on KM20L2 colon, in the test on DLD-1 colon and with DMS 114 small cell lung was more than 100 µM each time.
For the compound `CCN1CSC(=S)N(CC)C1`, the TGI with MDA-N was more than 100 µM.
In the case of `O=c1ccc(=O)c2c(=O)c3ccccc3c(=O)c1=2`, the TGI with LXFL 529 NSCLC was more than 100 µM; in the test with DMS 273 small cell lung it was more than 100 µM; in the test with DLD-1 colon it was more than 100 µM; in the test on XF 498 CNS it was more than 100 µM; with DMS 114 small cell lung it was 95.1 µM.
For `CC1(C)C2CCC3(C2)CS(=O)(=O)N2OC231` (configuration not stated), the TGI in the test with LXFL 529 NSCLC was 30.6 µM; in the test on DMS 273 small cell lung, 58.5 µM; in the test on KM20L2 colon it was 30.6 µM; in the test with HOP-18 NSCLC, 32.1 µM; in the test with DLD-1 colon, 47.5 µM; in the test with DMS 114 small cell lung, 26.8 µM.
For the compound `CCOC(=O)[C@H]1Nc2ccc(OC)cc2C2c3ccccc3CC21` (some centres not stated), the TGI with RXF-631 renal, in the test on LXFL 529 NSCLC, with DMS 273 small cell lung, in the test with KM20L2 colon, in the test with DLD-1 colon and with XF 498 CNS was more than 100 µM each time. In the test with DMS 114 small cell lung, this compound had a TGI of more than 100 µM.
As to `Cc1c(Cl)cccc1NC(=O)CC1C(=O)Nc2ccccc2S1(=O)=O` (configuration not stated), the TGI amounted to 29 µM with LXFL 529 NSCLC; 21.4 µM in the test with DMS 273 small cell lung; 44.9 µM with KM20L2 colon; 30.4 µM with DLD-1 colon; 30 µM in the test on XF 498 CNS; 44.9 µM in the test with DMS 114 small cell lung.
Regarding `COC(=O)C1=C(CS(=O)c2ccccc2[N+](=O)[O-])ON(C)C1c1ccccc1` (configuration not stated), the TGI in the test on LXFL 529 NSCLC is more than 100 µM; in the test on DMS 273 small cell lung, more than 100 µM; in the test on KM20L2 colon, 85.1 µM; with HOP-18 NSCLC, more than 100 µM; in the test on DLD-1 colon, more than 100 µM; with XF 498 CNS, 86.2 µM. Also, the TGI with DMS 114 small cell lung amounted to 65.5 µM.
Take `CC1CCN(CC(=O)N2c3ccccc3Sc3cc4ccccc4cc32)CC1`: the TGI in the test with MDA-N was more than 100 µM.
With `Nc1nc(CCC(=O)Nc2cccc(C(F)(F)F)c2)cc(-c2ccc3ccccc3c2)n1`, the TGI with LXFL 529 NSCLC, with DMS 273 small cell lung, with KM20L2 colon, with HOP-18 NSCLC, in the test on DLD-1 colon and in the test with XF 498 CNS was more than 100 µM in each case. The same compound registered a TGI with DMS 114 small cell lung of more than 100 µM.
On to `Cc1cc(=O)oc2cc(O)c(CN(C)CC(=O)O)cc12`, for which the TGI in the test with MDA-N is more than 100 µM.
`C[C-](O)O.O/C(=C\[C-](O)c1ccccc1)c1ccccc1.O/C(=C\[C-](O)c1ccccc1)c1ccccc1.[Nd+3]` (configuration not stated): the GI50 in the test on LXFL 529 NSCLC was 5.79 µM; in the test with DMS 273 small cell lung, 3.25 µM; in the test on KM20L2 colon, 5.76 µM; with DLD-1 colon it was 9.17 µM; in the test on XF 498 CNS it was 13.8 µM; with DMS 114 small cell lung, 17.9 µM. In addition, the TGI with LXFL 529 NSCLC is more than 100 µM; in the test on DMS 273 small cell lung, 16.1 µM; in the test on KM20L2 colon it was 21 µM; with DLD-1 colon, 44.2 µM; in the test on XF 498 CNS, 36.2 µM; in the test on DMS 114 small cell lung, 57 µM.
